Measured values published in patent US5990146A, “Benzimidazoles for inhibiting protein tyrosine kinase mediated cellular proliferation” (Warner-Lambert Company, priority 1998, dated 1999).
Structures can show the parent of a compound that is named as a salt.

Experiments:
[1] = molecular target: T1, PDGF receptor tyrosine kinase (mouse PDGF-β) (Mus musculus, UniProt P05622); experiment: PDGFr tyrosine kinase assay (poly glutamate-tyrosine phosphorylation); assay type: biochemical; settings: Table 1; 10 minutes at 25° C.
T1 construct: PCR primers are designed to amplify a fragment of DNA that codes for the intracellular tyrosine kinase domain; made in house; host or cells: Sf9 insect cells (baculovirus), cell lysate
Method: Platelet Derived Growth Factor Receptor (PDGFr) and Fibroblast Growth Factor Receptor (FGFr)
Full length cDNAs for the mouse PDGF-β and human FGF-1 (flg) receptor tyrosine kinases were obtained from J. Escobedo and are prepared as described in J. Biol. Chem., 262: 1482-1487 (1991). PCR primers are designed to amplify a fragment of DNA that codes for the intracellular tyrosine kinase domain. The fragment is melded into a baculovirus vector, cotransfected with AcMNPV DNA, and the recombinant virus isolated. SF9 insect cells are infected with the virus to overexpress the protein, and the cell lysate is used for the assay.
The assay is performed in 96-well plates (100 μL/incubation/well), and conditions are optimized to measure the incorporation of ^32 p from [γ^32 P]-ATP into a glutamate-tyrosine copolymer substrate. Briefly, to each well is added 82.5 μL of incubation buffer containing 25 mM Hepes (pH 7.0), 150 mM NaCl, 0.1% Triton X-100, 0.2 mM PMSF, 0.2 mM sodium vanadate, 10 mM manganese chloride, and 750 μg/mL of poly (4:1) glutamate-tyrosine followed by 2.5 μL of inhibitor and 5 μL of enzyme lysate (7.5 μg/μL FGFR-TK or 6.0 μg/μL PDGFR-TK) to initiate the reaction. Following a 10 minute incubation at 25° C., 10 μL of [γ^32 P]-ATP (0.4 μCi plus 50 μM ATP) is added to each well and samples are incubated for an additional 10 minutes at 25° C. The reaction is terminated by the addition of 100 μL of 30% trichloroacetic acid (TCA) containing 20 mM sodium pyrophosphate and precipitation of material onto glass fiber filter mats (Wallac). Filters are washed 3 times with 15% TCA containing 100 mM sodium pyrophosphate and the radioactivity retained on the filters counted in a Wallac 1250 Betaplate reader. Nonspecific activity is defined as radioactivity retained on the filters following incubation of samples with buffer alone (no enzyme). Specific enzymatic activity is defined as total activity (enzyme plus buffer) minus nonspecific activity.

[2] = molecular target: MAP Kinase Pathway (GST-MEK / GST-MAPK); experiment: Cascade Assay for Inhibitors of the MAP Kinase Pathway (APK Assay); assay type: biochemical; settings: Table 1; 50 μM ATP, 20 minutes
Method: Cascade Assay for Inhibitors of the MAP Kinase Pathway (APK Assay) Incorporation of ^32 P into myelin basic protein (MBP) is assayed in the presence of a glutathione S-transferase fusion protein containing p44MAP kinase (GST-MAPK) and a glutathione S-transferase fusion protein containing p45MEK (GST-MEK). […] Reactions are stopped after 20 minutes by addition of trichloroacetic acid and filtered through a GF/C filter mat. ^32 P retained on the filter mat is determined using a 1205 betaplate. […] To ascertain whether compounds are inhibiting GST-MEK or GST MAPK, two additional protocols are employed. In the first protocol, compounds are added to tubes containing GST MEK, followed by addition of GST-MAPK, MBP and [γ^32 P]ATP. In the second protocol, compounds are added to tubes containing both GST-MEK and GST-MAPK, followed by MBP and [γ^32 P]ATP. Compounds that show activity in both protocols are scored as […], while compounds showing activity in only the first protocol are scored as MEK inhibitors.

[3] = molecular target: T2, Human EGF receptor tyrosine kinase (Homo sapiens, UniProt P00533); experiment: EGFr tyrosine kinase assay; assay type: biochemical; settings: Table 1; 10 μM ATP, 25° C., 10 minutes
T2 construct: Human EGF receptor tyrosine kinase is isolated from A431 human epidermoid carcinoma cells; endogenous in cells; host or cells: A431 human epidermoid carcinoma cells (detergent lysate, fast Q sepharose fractions)

[4] = molecular target: T3, insulin receptor (INSr) (Homo sapiens, UniProt P06213); experiment: Insulin receptor kinase assay; assay type: biochemical; settings: Table 1; as for EGF receptor with 10 mM manganese chloride
T3 construct: An assay using the intracellular kinase domains of insulin receptor (INSr) is performed

[5] = molecular target: T4, FGF receptor tyrosine kinase (human FGF-1 (flg)) (Homo sapiens, UniProt P11362); experiment: FGFr tyrosine kinase assay (poly glutamate-tyrosine phosphorylation); assay type: biochemical; settings: Table 1; 10 minutes at 25° C.
T4 construct: PCR primers are designed to amplify a fragment of DNA that codes for the intracellular tyrosine kinase domain; made in house; host or cells: Sf9 insect cells (baculovirus), cell lysate
Method: Platelet Derived Growth Factor Receptor (PDGFr) and Fibroblast Growth Factor Receptor (FGFr) Full length cDNAs for the mouse PDGF-β and human FGF-1 (flg) receptor tyrosine kinases were obtained from J. Escobedo and are prepared as described in J. Biol. Chem., 262: 1482-1487 (1991). PCR primers are designed to amplify a fragment of DNA that codes for the intracellular tyrosine kinase domain. The fragment is […] into a baculovirus vector, cotransfected with AcMNPV DNA, and the recombinant virus isolated. SF9 insect cells are infected with the virus to overexpress the protein, and the cell lysate is used for the […] and FGFr The assay is performed in 96-well plates (100 μL/incubation/well), and conditions are optimized to measure the incorporation of ^32 p from [γ^32 P]-ATP into a glutamate-tyrosine copolymer substrate. […] The reaction is terminated by the addition of 100 μL of 30% trichloroacetic acid (TCA) containing 20 mM sodium pyrophosphate and precipitation of material onto glass fiber filter mats (Wallac). Filters are washed 3 times with 15% TCA containing 100 mM sodium pyrophosphate and the radioactivity retained on the filters counted in a Wallac 1250 Betaplate reader. Nonspecific activity is defined as radioactivity retained on the filters following incubation of samples with buffer alone (no enzyme). Specific enzymatic activity is defined as total activity (enzyme plus buffer) minus nonspecific activity.

[6] = molecular target: Protein kinase C (PKC); experiment: PKC assay; assay type: biochemical; settings: Table 1; rat brain preparation
Method: Protein kinase C (PKC) is obtained as a rat brain preparation from Promega.
The PKC assay is performed as previously described by Martiny-Baron, et al., J. Biol. Chem. 268: 9194-9197 (1993).

[7] = molecular target: T5, c-Src (Homo sapiens, UniProt P12931); experiment: c-Src kinase assay; assay type: biochemical; settings: Table 1; 5 μM ATP, room temperature, 10 minutes
T5 construct: made in house; host or cells: baculovirus infected insect cells
Method: c-Src kinase is purified from baculovirus infected insect cell lysates using an antipeptide monoclonal antibody directed against the N-terminal 2-17 amino acids as described previously by Fry, et al, Anticancer Drug Design. 9: 331-351 (1994). […] At the end of the lysate incubation, the beads are rinsed 3 times in lysis buffer, resuspended in lysis buffer containing 10% glycerol, and frozen. These latex beads are thawed, rinsed 3 times in assay buffer which is comprised of 40 mM tris pH 7.5, 5 mM magnesium chloride, and suspended in the same buffer. […] The reaction is started at room temperature by addition of the ATP and quenched 10 minutes later by the addition of 125 μL of 30% TCA, 0.1 M sodium pyrophosphate for 15 minutes on ice. The plate is then filtered and the wells washed with two 250-μL aliquots of 15% TCA, 0.1 M pyrophosphate. The filters are punched, counted in a liquid scintillation counter, and the data examined for inhibitory activity in comparison to a known inhibitor such as erbstatin. The method is described more fully in J. Med. Chem., 37: 598-609 (1994).

[8] = test system: SW-620 cells; experiment: Human Colon Carcinoma Growth Delay Assay; assay type: cell-based; settings: 72 h, Table 3, SW-620, 3 days
Method: Human Colon Carcinoma Growth Delay Assay Human colon carcinoma cells are seeded into 96-well tissue culture plates in a final volume of 180 μL of 10% fetal bovine serum containing growth media and allowed to incubate overnight (37° C., 5% CO2, 95% air). Cells of the SW620 cell line are seeded at 1.0-1.5×10^4 cells per well. Cells of the HCT8 and HT29 cell lines are seeded at 2-4×10^3 cells per well. […] At the end of the incubation period, cells are fixed with 100 μL per well of 10% trichloroacetic acid after removing the drug/culture medium. The plates are washed 5 times with tap water and stained with 100 μL per well of 0.075% sulforhodamine B in 1% acetic acid for 10 minutes. The plates are rinsed 4 times and allowed to air dry. The stain in the wells are solubilized by the addition of 10 mM unbuffered Tris base and the absorbance read using a microtiter plate optical reader. Inhibition of cell growth is calculated from absorbance data of the treated cells compared to untreated control cells. Table 3 provides data for inhibition of growth in human adenocarcinoma cell lines.

[9] = test system: SW-620 cells; experiment: Human Colon Carcinoma Clonogenic Assay; assay type: cell-based
Method: SW620 cells are seeded at 7×10^5 per well; HCT8 cells are seeded at 5×10^5 per well; HT29 cells are seeded at 4×10^5 cells per well. Serially diluted drugs are prepared at 200 ×the final concentration and 15 μL are added to each of duplicate wells. Cells are incubated with drug for 2 days, rinsed once with 1 mL of trypsin+EDTA, and then trypsinized with the same trypsin solution. […] One milliliter of each of these cell suspensions is added to duplicate wells of 6 well plates previously prepared with 10% serum/growth medium/ 1% agarose plugs. The cells in these plates are incubated for approximately 2 weeks in the incubator and stained with 1 mL per well of 1 mg/mL iodonitrotetrazolium violet stain. The visible colonies are counted with an electronic optical colony counter and the clonogenicity of treated cells calculated in comparison to untreated control cells.

[10] = test system: PDGF receptor autophosphorylation in rat aorta smooth muscle cells; experiment: PDGF Receptor Autophosphorylation Assay in rat aorta smooth muscle cells; assay type: cell-based; settings: Table 2, PDGF-BB 30 ng/mL, 2 hours pre-incubation, read-out: IC50, inhibition of PDGF-stimulated receptor autophosphorylation
Method: Rat aorta smooth muscle cells (RASMC) are isolated from the thoracic aorta of rats and explanted according to the method of Ross, J. Cell. […] Cells are grown in Dulbecco's modified Eagle's medium (DMEM, Gibco) containing 10% fetal calf serum (FBS, Hyclone, Logan, Utah), 1% glutamine (Gibco) and 1% penicillin/streptomycin (Gibco). Cells are identified as smooth muscle cells by their "hill and valley" growth pattern and by fluorescent staining with a monoclonal antibody specific for SMC μ-actin (Sigma). RASMC are used between passages 5 and 20 for all experiments. Test compounds are prepared in dimethylsulfoxide (DMSO) in order to achieve consistency in the vehicle and to ensure compound solubility. Appropriate DMSO controls are simultaneously evaluated with the test compounds.
Rat aortic smooth muscle cells are grown to confluencey in 100 mm dishes. Growth medium is removed and replaced with serum-free medium and cells are incubated at 37° C. for an additional 24 hours. Test compounds are then added directly to the medium and cells incubated for an additional 2 hours. After 2 hours PDGF-BB is added at a final concentration of 30 ng/mL for 5 minutes at 37° C. to stimulate autophosphorylation of PDGF receptors. Following growth factor treatment, the medium is removed, and cells are washed with cold phosphate-buffered saline and immediately lysed with 1 mL of lysis buffer (50 mM Hepes, pH 7.5, 150 mM NaCl, 10% glycerol, 1% Triton-X 100, 1 mM EDTA, 1 mM EGTA, 50 mM NaF, 1 mM sodium orthovanadate, 30 mM p-nitrophenyl phosphate, 10 mM sodium pyrophosphate, 1 mM phenylmethyl sulfonyl fluoride, 10 μg/mL aprotinin and 10 μg/mL leupeptin). Lysates are centrifuged at 10,000 ×g for 10 minutes. […] Following the incubation, protein-A-sepharose beads are added for 2 hours with continuous mixing, and immune complexes bound to the beads washed 4 times with 1 mL lysis wash buffer. Immune complexes are solubilized in 40 μL of Laemmli sample buffer and electrophoresed in 8-16% SDS polyacrylamide gels. Following electrophoresis, separated proteins are transferred to nitrocellulose and immunoblotted with a 1:1000 dilution of antiphosphotyrosine monoclonal antibody (UBI clone 4G10; #05-321). Following extensive washing with PBS-0.2% tween-20, the blots are incubated with horseradish peroxidase labeled goat antimouse IgG (1:5000; Bio-Rad Inc, Hercules, Calif.) and protein levels are detected by enhanced chemiluminescence (ECL) detection system according to the instructions of the supplier (Amersham Inc, Arlington Heights, Ill.). The density of the protein bands are determined using NIH Image software (v. 1.56) and IC50 values are generated from the densitometric data.

[11] = Table 3, SW-620, 2 days drug exposure, approximately 2 weeks colony growth, read-out: SW-620 Clonogenic IC50

T1 sequence (P05622 599-961 limits assumed): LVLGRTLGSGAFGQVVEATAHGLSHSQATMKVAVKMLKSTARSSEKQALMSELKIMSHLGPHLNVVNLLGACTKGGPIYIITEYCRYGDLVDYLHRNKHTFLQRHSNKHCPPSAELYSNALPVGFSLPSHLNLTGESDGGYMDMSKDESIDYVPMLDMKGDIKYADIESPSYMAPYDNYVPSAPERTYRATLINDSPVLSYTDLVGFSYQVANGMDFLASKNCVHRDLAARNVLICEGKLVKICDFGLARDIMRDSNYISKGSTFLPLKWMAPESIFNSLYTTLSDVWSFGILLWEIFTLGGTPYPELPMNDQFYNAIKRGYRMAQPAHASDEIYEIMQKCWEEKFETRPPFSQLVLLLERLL
T3 sequence (P06213 1023-1298 limits assumed, species assumed): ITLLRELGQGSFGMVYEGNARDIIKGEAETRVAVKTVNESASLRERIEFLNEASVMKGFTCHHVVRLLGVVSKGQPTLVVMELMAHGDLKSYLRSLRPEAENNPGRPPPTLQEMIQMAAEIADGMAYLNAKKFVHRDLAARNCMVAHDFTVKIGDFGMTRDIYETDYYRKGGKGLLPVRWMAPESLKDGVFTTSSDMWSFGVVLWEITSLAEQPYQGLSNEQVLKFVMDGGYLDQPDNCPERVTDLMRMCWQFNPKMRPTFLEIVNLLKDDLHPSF
T5 sequence (P12931 whole entry, species assumed): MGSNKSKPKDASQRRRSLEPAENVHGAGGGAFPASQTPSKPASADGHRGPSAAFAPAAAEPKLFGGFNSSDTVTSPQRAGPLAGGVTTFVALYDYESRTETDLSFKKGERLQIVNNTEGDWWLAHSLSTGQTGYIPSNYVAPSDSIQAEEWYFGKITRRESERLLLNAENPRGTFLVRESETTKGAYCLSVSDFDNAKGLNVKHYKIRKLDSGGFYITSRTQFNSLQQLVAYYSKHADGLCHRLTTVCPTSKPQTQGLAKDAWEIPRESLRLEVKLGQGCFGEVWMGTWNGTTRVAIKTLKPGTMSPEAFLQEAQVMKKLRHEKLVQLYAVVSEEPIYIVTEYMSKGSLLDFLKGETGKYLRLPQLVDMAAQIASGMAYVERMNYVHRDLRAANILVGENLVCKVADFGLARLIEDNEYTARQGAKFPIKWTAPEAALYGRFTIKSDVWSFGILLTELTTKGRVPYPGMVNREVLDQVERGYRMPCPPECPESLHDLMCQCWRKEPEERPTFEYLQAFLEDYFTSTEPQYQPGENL
T2 sequence (P00533 25-1210): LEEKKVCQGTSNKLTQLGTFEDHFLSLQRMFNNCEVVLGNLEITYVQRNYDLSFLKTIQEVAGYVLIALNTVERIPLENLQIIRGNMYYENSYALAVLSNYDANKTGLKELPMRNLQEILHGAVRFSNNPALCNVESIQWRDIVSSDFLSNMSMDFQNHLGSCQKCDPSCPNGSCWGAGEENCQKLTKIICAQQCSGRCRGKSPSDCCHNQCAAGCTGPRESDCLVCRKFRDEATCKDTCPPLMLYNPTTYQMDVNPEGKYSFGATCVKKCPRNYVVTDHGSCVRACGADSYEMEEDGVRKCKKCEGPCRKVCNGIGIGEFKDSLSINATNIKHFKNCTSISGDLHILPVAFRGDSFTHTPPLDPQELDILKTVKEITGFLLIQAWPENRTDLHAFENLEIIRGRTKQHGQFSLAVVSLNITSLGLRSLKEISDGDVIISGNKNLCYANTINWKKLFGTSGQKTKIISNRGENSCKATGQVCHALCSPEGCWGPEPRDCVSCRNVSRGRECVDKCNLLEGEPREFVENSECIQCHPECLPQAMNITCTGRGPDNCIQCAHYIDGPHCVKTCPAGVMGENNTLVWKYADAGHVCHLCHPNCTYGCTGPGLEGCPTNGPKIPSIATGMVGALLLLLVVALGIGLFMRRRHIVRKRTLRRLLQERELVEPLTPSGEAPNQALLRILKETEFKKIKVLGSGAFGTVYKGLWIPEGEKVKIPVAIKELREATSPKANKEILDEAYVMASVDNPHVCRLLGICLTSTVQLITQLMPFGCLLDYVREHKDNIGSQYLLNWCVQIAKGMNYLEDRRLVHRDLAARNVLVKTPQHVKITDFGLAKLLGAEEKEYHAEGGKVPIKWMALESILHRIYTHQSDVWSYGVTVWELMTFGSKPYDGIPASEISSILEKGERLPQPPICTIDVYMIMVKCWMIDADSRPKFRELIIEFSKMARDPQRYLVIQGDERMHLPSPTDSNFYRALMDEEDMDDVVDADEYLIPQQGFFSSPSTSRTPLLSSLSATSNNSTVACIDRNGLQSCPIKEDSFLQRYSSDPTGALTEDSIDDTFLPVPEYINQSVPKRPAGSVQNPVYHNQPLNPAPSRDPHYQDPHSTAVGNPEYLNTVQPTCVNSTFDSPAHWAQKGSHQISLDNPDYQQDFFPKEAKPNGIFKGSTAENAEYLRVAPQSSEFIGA
T4 sequence (P11362 478-767 limits assumed): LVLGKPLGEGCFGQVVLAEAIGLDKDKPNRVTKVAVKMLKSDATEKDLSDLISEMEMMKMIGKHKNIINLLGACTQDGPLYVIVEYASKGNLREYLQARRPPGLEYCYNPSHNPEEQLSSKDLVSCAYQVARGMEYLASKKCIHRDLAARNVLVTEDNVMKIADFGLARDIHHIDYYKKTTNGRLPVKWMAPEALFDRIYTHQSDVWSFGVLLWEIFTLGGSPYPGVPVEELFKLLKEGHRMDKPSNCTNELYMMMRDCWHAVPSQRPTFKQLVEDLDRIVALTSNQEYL

Compound	IC50 [1]	IC50 [2]	IC50 [3]	IC50 [4]	IC50 [5]	IC50 [6]	IC50 [7]	IC50 [8]	IC50 [9, 11]	IC50 [10]	IC50 ([9]; SW-620, read-out: SW-620 Clonogenic IC50)
CN(C)CCCOc1ccc2c(c1)ncn2-c1ccccc1 [Example 37, 5-[3--(N,N-Dimethylamino)propoxyl]-1-phenylbenzimidazole Dihydrochloride]	0.2 µM	27 µM	> 40 µM	> 50 µM	4.1 µM	> 50 µM	14 µM				
c1ccc(-n2cnc3cc(OCCCCN4CCOCC4)ccc32)cc1 [Example 59, 5-[4-(4-Morpholino)butoxy]-1]phenylbenzimidazole Dihydrochloride]	0.3 µM				12 µM		25 µM	> 25 µM	> 25 µM	2.2 µM	
COc1ccc2c(c1)ncn2-c1ccccc1 [Example 13, 5-Methoxy-1-phenylbenzimidazole Hydrochloride]	0.4 µM	5 µM	< 50 µM	> 50 µM	22 µM	> 50 µM		> 25 µM	> 5 µM	2 µM	
Oc1cccc2c1ncn2-c1ccccc1 [Example 11, 4-Hydroxy-1-phenylbenzimidazole Hydrochloride]	10.6 µM		> 50 µM	> 50 µM				> 25 µM	2.1 µM	> 10 µM	> 5 µM

More lines, main results first:

IC50 [1]	IC50 [2]	IC50 [3]	IC50 [4]	IC50 [5]	IC50 [6]	IC50 [7]	Compound	IC50 [8]	IC50 [9, 11]	IC50 [10]	IC50 ([9]; SW-620, read-out: SW-620 Clonogenic IC50)
0.2 µM	18 µM	> 40 µM	> 50 µM	9.8 µM	> 50 µM	> 50 µM	c1ccc(-n2cnc3cc(OCCCN4CCOCC4)ccc32)cc1 [Example 39, 5-[3-(4-Morpholino)propoxy]-1-phenylbenzimidazole Dihydrochloride]				
0.7 µM	45 µM	> 40 µM	> 50 µM	28 µM	> 50 µM	> 50 µM	c1ccc(-n2cnc3cc(OCCN4CCOCC4)ccc32)cc1 [Example 38, 5-[2-(4-Morpholino)ethoxy]-1-phenylbenzimidazole Dihydrochloride]			0.7 µM	
0.3 µM	37 µM	< 40 µM	> 50 µM	18 µM	> 50 µM	> 50 µM	COc1ccc2c(c1)ncn2-c1ccc(N)cc1 [Example 45, 1-(4-Aminophenyl)-5-methoxybenzimidazole Dihydrochloride]			3.5 µM	
